# Measurements as given in PubChem BioAssay AID2060512 (Molecular Pharmacology Branch, DTP, NCI, 2025).
# Tested on: 186277-243-T-J2-PDC complex spheroid viability
# Experiment: Anticancer human tumor 186277-243-T-J2-PDC patient-derived colon adenocarcinoma cell line growth inhibition [GQUAD]
# Details: for IC50: curve of first compound; for viability, T/C: stronger effect = lower value
# In short: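 Tumor cells were grown as complex spheroids with HUVEC endothelial cells and mesenchymal stem cells as stroma. G-quadruplex stabilizers were combined with targeted agents over half-log dilutions from near the clinical Cmax, or from 10 microM.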
# [1] = second compound 0.0316 µM, first compound 0.0316 µM
# [2] = second compound 0.0316 µM, first compound 0.1 µM
# [3] = second compound 0.0316 µM, first compound 0.316 µM
# [4] = second compound 0.0316 µM, first compound 1 µM
# [5] = second compound 0.0316 µM, first compound 3.16 µM
# [6] = second compound 0.0316 µM, first compound 10 µM
# [7] = second compound 0.1 µM, first compound 0.0316 µM
# [8] = second compound 0.1 µM, first compound 0.1 µM
# [9] = second compound 0.1 µM, first compound 0.316 µM
# [10] = second compound 0.1 µM, first compound 1 µM
# [11] = second compound 0.1 µM, first compound 3.16 µM
# [12] = second compound 0.1 µM, first compound 10 µM
# [13] = second compound 0.316 µM, first compound 0.0316 µM
# [14] = second compound 0.316 µM, first compound 0.1 µM
# [15] = second compound 0.316 µM, first compound 0.316 µM
# [16] = second compound 0.316 µM, first compound 1 µM
# [17] = second compound 0.316 µM, first compound 3.16 µM
# [18] = second compound 0.316 µM, first compound 10 µM
# [19] = second compound 1 µM, first compound 0.0316 µM
# [20] = second compound 1 µM, first compound 0.1 µM
# [21] = second compound 1 µM, first compound 0.316 µM
# [22] = second compound 1 µM, first compound 1 µM
# [23] = second compound 1 µM, first compound 3.16 µM
# [24] = second compound 1 µM, first compound 10 µM
# [25] = second compound 3.16 µM, first compound 0.0316 µM
# [26] = second compound 3.16 µM, first compound 0.1 µM
# [27] = second compound 3.16 µM, first compound 0.316 µM
# [28] = second compound 3.16 µM, first compound 1 µM
# [29] = second compound 3.16 µM, first compound 3.16 µM
# [30] = second compound 3.16 µM, first compound 10 µM
# [31] = second compound 10 µM, first compound 0.0316 µM
# [32] = second compound 10 µM, first compound 0.1 µM
# [33] = second compound 10 µM, first compound 0.316 µM
# [34] = second compound 10 µM, first compound 1 µM
# [35] = second compound 10 µM, first compound 3.16 µM
# [36] = second compound 10 µM, first compound 10 µM
# 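Note: spheroids exposed to drugs for 7 days.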
# 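Throughout, for viability, T/C: 100% = DMSO vehicle control viability.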
compound,measurement,setting,value
COc1ccc([C@@H](O)c2cc(-c3ncnc4cc(N5CCOCC5)ccc34)c(F)cc2Cl)nn1 + CN(C)c1ccc(Nc2c3ccc(NC(=O)CCN4CCCC4)cc3nc3cc(NC(=O)CCN4CCCC4)ccc23)cc1,IC50,second compound 0.0316 µM,3940 nM
same,IC50,second compound 0.1 µM,5030 nM
same,IC50,second compound 0.316 µM,4100 nM
same,IC50,second compound 1 µM,4450 nM
same,IC50,second compound 3.16 µM,4330 nM
same,IC50,second compound 10 µM,2310 nM
same,"viability, T/C",[1],102%
same,"viability, T/C",[2],102%
same,"viability, T/C",[3],117%
same,"viability, T/C",[4],75.9%
same,"viability, T/C",[5],59.8%
same,"viability, T/C",[6],26.2%
same,"viability, T/C",[7],112%
same,"viability, T/C",[8],96%
same,"viability, T/C",[9],90.1%
same,"viability, T/C",[10],85.2%
same,"viability, T/C",[11],73.3%
same,"viability, T/C",[12],22.5%
same,"viability, T/C",[13],95%
same,"viability, T/C",[14],92.7%
same,"viability, T/C",[15],104%
same,"viability, T/C",[16],82.3%
same,"viability, T/C",[17],57.8%
same,"viability, T/C",[18],26.3%
same,"viability, T/C",[19],86.5%
same,"viability, T/C",[20],93.2%
same,"viability, T/C",[21],89.2%
same,"viability, T/C",[22],110%
same,"viability, T/C",[23],62.8%
same,"viability, T/C",[24],19.9%
same,"viability, T/C",[25],98.3%
same,"viability, T/C",[26],87.5%
same,"viability, T/C",[27],108%
same,"viability, T/C",[28],96.4%
same,"viability, T/C",[29],61.1%
same,"viability, T/C",[30],20.4%
same,"viability, T/C",[31],91.3%
same,"viability, T/C",[32],88.1%
same,"viability, T/C",[33],111%
same,"viability, T/C",[34],81.1%
same,"viability, T/C",[35],37.9%
same,"viability, T/C",[36],7.76%
CC(C)(O)C1CCC(Nc2ccc3ncc(-c4cccc(C(F)(F)F)c4)n3n2)CC1 (stereo not drawn) + CN(C)c1ccc(Nc2c3ccc(NC(=O)CCN4CCCC4)cc3nc3cc(NC(=O)CCN4CCCC4)ccc23)cc1,IC50,second compound 0.0316 µM,2700 nM
same,IC50,second compound 0.1 µM,4050 nM
same,IC50,second compound 0.316 µM,2780 nM
same,IC50,second compound 1 µM,5190 nM
same,IC50,second compound 3.16 µM,2890 nM
same,IC50,second compound 10 µM,3530 nM
same,"viability, T/C",[1],103%
same,"viability, T/C",[2],84.8%
same,"viability, T/C",[3],113%
same,"viability, T/C",[4],92.4%
same,"viability, T/C",[5],42.7%
same,"viability, T/C",[6],44%
same,"viability, T/C",[7],98.8%
same,"viability, T/C",[8],89.1%
same,"viability, T/C",[9],91.4%
same,"viability, T/C",[10],92.1%
same,"viability, T/C",[11],51.6%
same,"viability, T/C",[12],44.1%
same,"viability, T/C",[13],107%
same,"viability, T/C",[14],92.7%
same,"viability, T/C",[15],108%
same,"viability, T/C",[16],92.3%
same,"viability, T/C",[17],44.9%
same,"viability, T/C",[18],36%
same,"viability, T/C",[19],93.1%
same,"viability, T/C",[20],99.5%
same,"viability, T/C",[21],85.7%
same,"viability, T/C",[22],92%
same,"viability, T/C",[23],56.2%
same,"viability, T/C",[24],41.7%
same,"viability, T/C",[25],93.1%
same,"viability, T/C",[26],93.5%
same,"viability, T/C",[27],108%
same,"viability, T/C",[28],81.6%
same,"viability, T/C",[29],48.2%
same,"viability, T/C",[30],27.6%
same,"viability, T/C",[31],133%
same,"viability, T/C",[32],107%
same,"viability, T/C",[33],96.7%
same,"viability, T/C",[34],98.2%
same,"viability, T/C",[35],41.4%
same,"viability, T/C",[36],22.8%
O=c1[nH]cc(F)c(=O)[nH]1 + Cc1cnc(CNC(=O)c2c(=O)c3ccc(N4CCCN(C)CC4)nc3n3c2sc2ccccc23)cn1,IC50,second compound 0.0316 µM,> 10000 nM
same,IC50,second compound 0.1 µM,> 10000 nM
same,IC50,second compound 0.316 µM,> 10000 nM
same,IC50,second compound 1 µM,< 31.6 nM
same,IC50,second compound 3.16 µM,< 31.6 nM
same,IC50,second compound 10 µM,< 31.6 nM
same,"viability, T/C",[1],106%
same,"viability, T/C",[2],110%
same,"viability, T/C",[3],109%
same,"viability, T/C",[4],98.5%
same,"viability, T/C",[5],82.9%
same,"viability, T/C",[6],57%
same,"viability, T/C",[7],86.4%
same,"viability, T/C",[8],93.7%
same,"viability, T/C",[9],99.9%
same,"viability, T/C",[10],79%
same,"viability, T/C",[11],93.3%
same,"viability, T/C",[12],66.3%
same,"viability, T/C",[13],76.8%
same,"viability, T/C",[14],73.3%
same,"viability, T/C",[15],84.7%
same,"viability, T/C",[16],57.7%
same,"viability, T/C",[17],75.1%
same,"viability, T/C",[18],55.1%
same,"viability, T/C",[19],47.9%
same,"viability, T/C",[20],56.3%
same,"viability, T/C",[21],50.7%
same,"viability, T/C",[22],56.6%
same,"viability, T/C",[23],64.3%
same,"viability, T/C",[24],56.3%
same,"viability, T/C",[25],49.4%
same,"viability, T/C",[26],44.8%
same,"viability, T/C",[27],51.5%
same,"viability, T/C",[28],50.7%
same,"viability, T/C",[29],61.7%
same,"viability, T/C",[30],43.7%
same,"viability, T/C",[31],40.5%
same,"viability, T/C",[32],41.7%
same,"viability, T/C",[33],39.2%
same,"viability, T/C",[34],53.3%
same,"viability, T/C",[35],48.7%
same,"viability, T/C",[36],45.9%
CC1COCCN1c1cc(C2(O)CC3CCC(C2)O3)c2cnn(-c3ccn[nH]3)c2n1 (stereo not drawn) + Cc1[nH]c2ccc(F)cc2c1-c1nc2c3cccnc3c3ncccc3c2[nH]1,IC50,second compound 0.0316 µM,38.1 nM
same,IC50,second compound 0.1 µM,33.9 nM
same,IC50,second compound 0.316 µM,< 31.6 nM
same,IC50,second compound 1 µM,< 31.6 nM
same,IC50,second compound 3.16 µM,< 31.6 nM
same,IC50,second compound 10 µM,33.2 nM
same,"viability, T/C",[1],57.5%
same,"viability, T/C",[2],10.8%
same,"viability, T/C",[3],6.48%
same,"viability, T/C",[4],5.12%
same,"viability, T/C",[5],5.33%
same,"viability, T/C",[6],4.69%
same,"viability, T/C",[7],52.6%
same,"viability, T/C",[8],10.2%
same,"viability, T/C",[9],8.88%
same,"viability, T/C",[10],4.75%
same,"viability, T/C",[11],5.69%
same,"viability, T/C",[12],3.63%
same,"viability, T/C",[13],31.9%
same,"viability, T/C",[14],11.2%
same,"viability, T/C",[15],8.68%
same,"viability, T/C",[16],5.79%
same,"viability, T/C",[17],6.74%
same,"viability, T/C",[18],4.58%
same,"viability, T/C",[19],40.6%
same,"viability, T/C",[20],22.6%
same,"viability, T/C",[21],6.11%
same,"viability, T/C",[22],7.77%
same,"viability, T/C",[23],6.18%
same,"viability, T/C",[24],4.27%
same,"viability, T/C",[25],48.3%
same,"viability, T/C",[26],14.4%
same,"viability, T/C",[27],6.36%
same,"viability, T/C",[28],4.01%
same,"viability, T/C",[29],5.26%
same,"viability, T/C",[30],2.84%
same,"viability, T/C",[31],52%
same,"viability, T/C",[32],16.5%
same,"viability, T/C",[33],8.81%
same,"viability, T/C",[34],3.92%
same,"viability, T/C",[35],4.33%
same,"viability, T/C",[36],1.45%
